Assay results from US20240208915A1, “A SOLID STATE FORM OF TAFAMIDIS AND A PROCESS FOR ITS PREPARATION” (Quimica Sintetica, S.A., priority 2021, published 2024).
Read-outs that look alike come from different tables or passages of the source. One block for each compound: values may come before it.

What was measured:
[1] = Chemical and physical stability over storage (summary statements)
From the text: “Storage condition” referred to 2-(3,5-dichlorophenyl)-1,3-benzoxazole-6-carboxylic acid and its salt means that all the forms are stored in a close vessel at room temperature, ambient pressure and at relative humidity (RH) degree not more than 80%.

[2] = Stability studies: HPLC to measure the chemical purity; type: physicochemical
Experimental: (§1) Vials containing 100 mg each of alpha form of present invention are stored at the following conditions, wherein RH is referred to relative humidity: • room Temperature (RT) and 80% RH, open vial • 40° C. and 75% RH, open vial
(§2) The sample were analysed before the storage (initial data), 8 days, 15 days and 4 weeks using X-ray powder diffractogram (XRPD) to evaluate any change in crystalline form and using HPLC to measure the chemical purity.
(§3) 700 mg of tafamidis form 4 of obtained according to present invention are stored at the following conditions, wherein RH is referred to relative humidity: • 40° C. and 75% RH, type A container.
(§4) The samples were analysed before the storage (initial data), after 1 month, 3 months, 6 months using X-ray powder diffractogram (XRPD) to evaluate any change in crystalline form and using HPLC to measure the chemical purity.

[3] = Stability studies: XRPD to evaluate any change in crystalline form; type: physicochemical
Experimental: (§5) The instruments and methods used to characterize the crystals obtained in the examples are as follows: • X-ray powder diffraction analyses (XRPD) were performed on a Bruker D8 Advance X-ray powder diffractometer at about 25° C. and ambient humidity (e.g. 25-35%), using a Cu Kα tube (40 kV, 40 mA, λ=1.5418 Å) as the X-ray source, equipped with a linear Lynxeye XE-T position sensitive detector set at 250 mm from the sample. A Nickel filter (0.0125 mm thickness) was mounted on the primary beam. Data collection was made in coupled mode, theta-theta configuration over an angular range between at least 3° 2 theta and 40° 2theta and a scan step of 0.02°. Fine powder samples were placed in a flat, thin layer in the 12 mm×0.2 mm cavity of a silicon low background plate fixed on a sample holder fitting an autosampler position. The instrument was previously calibrated by means of NIST SRM 1976b. Data acquisition was performed by means of Bruker Diffraction Measurement Center software; data elaboration was performed by means of Crystal Impact Match! or Bruker Diffrac. EVA software.
as §1, §2, §3, §4

[4] = XRPD pattern after keeping at storage condition in a close vial; type: physicochemical; conditions: storage condition (room temperature, RH not more than 80%)
Experimental: as §5

[5] = cited from earlier work

SMILES: O=C(O)c1ccc2nc(-c3cc(Cl)cc(Cl)c3)oc2c1 [form alpha, 2-(3,5-dichlorophenyl)-1,3-benzoxazole-6-carboxylic acid]
chemical and physical stability (polymorphic form, chemical purity) ([1]; storage between 15 to 60° C. for several weeks at different degree of humidity): chemically and physically stable
chemical purity by HPLC versus initial profile ([2]; 40° C., 75% RH, open vial, up to 4 weeks): does not present a significant worsening of the purity
chemical purity by HPLC versus initial profile ([2]; 40° C., 75% RH, type A container, up to 6 months): does not present a significant worsening of the purity
chemical purity by HPLC versus initial profile ([2]; room temperature, 80% RH, open vial, up to 4 weeks): does not present a significant worsening of the purity
transformation into a different crystalline form (XRPD) ([3]; 40° C., 75% RH, open vial, after 4 weeks): no signs of transformation
transformation into a different crystalline form (XRPD) ([3]; room temperature, 80% RH, open vial, after 4 weeks): no signs of transformation

SMILES: O=C(O)c1ccc2nc(-c3cc(Cl)cc(Cl)c3)oc2c1 [amorphous, 2-(3,5-dichlorophenyl)-1,3-benzoxazole-6-carboxylic acid]
solid form conversion upon storage ([5]; 1 week at 70° C. and 75% relative humidity): converts into crystalline form 4

SMILES: O=C(O)c1ccc2nc(-c3cc(Cl)cc(Cl)c3)oc2c1 [form I, 2-(3,5-dichlorophenyl)-1,3-benzoxazole-6-carboxylic acid]
solid form conversion upon drying ([5]; vacuum dryer at 100-160° C. (WO 2020/232325, examples 16 to 20)): convert into form 4

Further lines, with some results ahead:

chemical and physical stability (XRPD pattern, degradation) ([1]; kept at storage condition): chemically and physically stable
change of XRPD pattern ([4]; 8 months): does not change its XRPD pattern
SMILES: O=C(O)c1ccc2nc(-c3cc(Cl)cc(Cl)c3)oc2c1 [form 1, 2-(3,5-dichlorophenyl)-1,3-benzoxazole-6-carboxylic acid]
thermodynamic stability of the form ([5]; room temperature): thermodynamically stable form

chemical and physical stability ([1]; stored for several months at 40° C. and 75% RH): chemically and physically stable
change of XRPD pattern ([4]; 10 months): does not change its XRPD pattern
SMILES: O=C(O)c1ccc2nc(-c3cc(Cl)cc(Cl)c3)oc2c1 [form 4, 2-(3,5-dichlorophenyl)-1,3-benzoxazole-6-carboxylic acid]
transformation into a different crystalline form (XRPD) ([3]; 40° C., 75% RH, type A container, after 6 months): no signs of transformation into a different crystalline form
thermodynamic stability of the form ([5]; high temperature): more stable
